Where two headings read alike, the source gives them in different places.

In general, mortality refers to the percentage killed. By logP is commonly meant the decadic logarithm of the partition coefficient of the neutral form, usually between octanol and water. As usually defined, the melting point is the temperature of the solid-liquid transition.

Data set [1] deals with Meloidogyne spp. (root-knot nematode). The data set is described as follows: Meloidogyne spp. contact activity, preventive, cucumber seed in filter paper pouch. The class given is in vivo. The method, then:
(§1) Filter papers (9 cm×4.5 cm) with a small pocket were placed into plastic pouches (12 cm×6 cm). One cucumber cv. Toshka seed was placed in the centre of the filter paper pocket of all the pouches needed for a test. […] Prior to application, the compound solution was prepared at twice the concentration required and the egg suspension is prepared with FORL nutrient solution with 3000 eggs/0.5 ml. After applying all the treatments, 3000 eggs (in 0.5 ml of FORL nutrient solution) were pipetted into the pouches. The pouches were incubated in a moist chamber for twelve days and watered regularly to maintain good filter paper moisture essential for the growing cucumber root system. After this period, the filter paper containing the germinated cucumber seedling was removed from the plastic pouch to assess the number of galls caused by Meloidogyne spp. per root system. Phytotoxicity was measured as a reduction of growth of the emerged cucumber seedling in comparison to the control.
as §1, with “system.” for “system. Phytotoxicity was measured as a reduction of growth of the emerged cucumber seedling in comparison to the control.”

Another data set concerns M. incognita. Nature of the data set: Meloidogyne spp. contact activity, preventive, cucumber in pots treated with WP10 suspension. The class given is in vivo. The method, then:
Cucumber cv. Toshka seeds were sown directly into pots filled with a sandy substrate. Six days later pots were each treated with 5 ml of a WP10 suspension of the test compound. Hereafter, pots were inoculated with 3000 eggs of M. incognita. The trial was harvested fourteen days after trial application and inoculation. Root galling was assessed according to Zeck's gall index (Zeck W. M. (1971) Ein Bonitierungsschema zur Feldauswertung von Wurzelgallenbefall. Pflanzenschutznachrichten Bayer 24, 1: 144-147). Phytotoxicity was measured as a reduction of growth of the emerged cucumber seedling in comparison to the control.

The nature of a further data set: LogP (Table 1). The class given is physicochemical.
Data set [2] relates to Pratylenchus zeae (Corn Lesion Nematode). The data set is described as follows: Pratylenchus zeae contact activity, preventive, coated corn seeds. It is filed as in vivo. The settings on record: seed treatment 1 mg Al/seed, corn cv. LG4620, 1500 nematodes, 7 days after inoculation. The method, then: Coated corn cv. LG4620 seeds were sown 1 cm deep into 45 ml pots with soil (7:3 w/w—a mixture of 70% field soil and 30% quartz Sand). Two days after sowing the pots were infested with 1500 nematodes (all stages) of Pratylenchus zeae within a 2 ml suspension in two holes to the left and right of the seed hole. Assessment of phytotoxicity (in %) and nematode numbers within the root system occurred 7 days after inoculation. The upper plant part was cut off and the roots were washed free of soil debris. Nematodes within the roots were stained with acid fuchsin stain solution. Nematodes within the roots were quantified under a dissecting scope at 40×. Seed treatment rate: 1 mg Al/seed

Setting [3] is: 1.6 ppm, cucumber pouch test, read-out: Mortality (%).
Where [4] appears, read: 8 ppm, cucumber pouch test, read-out: Mortality (%).
[5] abbreviates: 40 ppm, cucumber pouch test, read-out: Mortality (%).
Where [6] appears, read: 200 ppm, cucumber pouch test, read-out: Mortality (%).
The mark [7] stands for this setting: 0.16 ppm, cucumber pot test, read-out: Mortality (%).
The mark [8] stands for this setting: 0.8 ppm, cucumber pot test, read-out: Mortality (%).
Where [9] appears, read: 4 ppm, cucumber pot test, read-out: Mortality (%).
Setting [10] is: 20 ppm, cucumber pot test, read-out: Mortality (%).

In data set [1], `Cc1nc(C(F)(F)F)c(C(=O)N[C@H]2CC[C@H]2c2ccc(Cl)cc2Cl)s1` [C, reference compound] registered a mortality at 1.6 ppm of 0%, a mortality at 8 ppm of 0%, a mortality at 40 ppm of 0% and a mortality at 200 ppm of 0%. In the data set on M. incognita, this compound yielded a mortality at 0.16 ppm of 0%, a mortality at 0.8 ppm of 0%, a mortality at 4 ppm of 0% and a mortality at 20 ppm of 0%.

`O=C(N[C@H]1CC[C@H]1c1ccc(Cl)cc1)c1scnc1C(F)(F)F` [Example 4, N-[(1S,2S)-2-(4-chlorophenyl)cyclobutyl]-4-(trifluoromethyl)thiazole-5-carboxamide] gave a melting point of 103 to 108 °C. The compound further returned a logP in “LogP (Table 1)” of 3.21.

For the compound `O=C(N[C@H]1CC[C@H]1c1ccc(Cl)cc1Cl)c1scnc1C(F)(F)F` [Example 7, N-[(1S,2S)-2-(2,4-dichlorophenyl)cyclobutyl]-4-(trifluoromethyl)thiazole-5-carboxamide], the mortality at 1.6 ppm in data set [1] (setting [3]) stood at 77%. In addition, the mortality at 8 ppm in data set [1] (setting [4]) was 90%. Also, the mortality at 40 ppm in data set [1] (setting [5]) is 98%. Also, the mortality at 200 ppm in data set [1] (setting [6]) turned out to be 99%. This compound also registered a logP in the data set “LogP (Table 1)” of 3.44. Moreover, the mortality at 0.16 ppm with M. incognita (setting [7]) is 14%. Besides, the mortality at 0.8 ppm in the data set with M. incognita (setting [8]) was determined as 14%. Moreover, in the data set on M. incognita (setting [9]), the mortality at 4 ppm is 60%. Also, in the data set with M. incognita (setting [10]), the mortality at 20 ppm was 99%.

Take `O=C(N[C@H]1CC[C@H]1c1ccc(Cl)cc1Cl)c1scnc1C(F)F` [Example 9, N-[(1S,2S)-2-(2,4-dichlorophenyl)cyclobutyl]-4-(difluoromethyl)thiazole-5-carboxamide]: the mortality at 1.6 ppm in data set [1] (setting [3]) is 0%. In data set [1] (setting [4]), the mortality at 8 ppm came out at 64%. The mortality at 40 ppm in data set [1] (setting [5]) is 81%. The mortality at 200 ppm in data set [1] (setting [6]) amounted to 98%. In the data set “LogP (Table 1)”, this compound displayed a logP of 3.25. Moreover, the mortality at 0.16 ppm in the data set with M. incognita (setting [7]) amounted to 22%. Moreover, in the data set with M. incognita (setting [8]), the mortality at 0.8 ppm stood at 61%. The mortality at 4 ppm with M. incognita (setting [9]) worked out at 97%. For the same compound, the mortality at 20 ppm in the data set on M. incognita (setting [10]) turned out to be 98%.

Regarding `O=C(N[C@H]1CC[C@H]1c1ccc(F)cc1F)c1scnc1C(F)F` [Example 8, 4-(difluoromethyl)-N-[(1S,2S)-2-(2,4-difluorophenyl)cyclobutyl]thiazole-5-carboxamide], the logP in the data set “LogP (Table 1)” was found to be 2.4.

With `O=C(N[C@H]1CC[C@H]1c1ccc(F)cc1Cl)c1scnc1C(F)(F)F` [Example 5, N-[(1S,2S)-2-(2-chloro-4-fluoro-phenyl)cyclobutyl]-4-(trifluoromethyl)thiazole-5-carboxamide], in data set [2], the “reduction of nematode population compared to the untreated control” value was “greater than 80%”. The same compound displayed a logP in “LogP (Table 1)” of 2.92.

In “LogP (Table 1)”, `O=C(N[C@H]1CC[C@H]1c1ccc(F)cc1F)c1scnc1C(F)(F)F` [Example 6, N-[(1S,2S)-2-(2,4-difluorophenyl)cyclobutyl]-4-(trifluoromethyl)thiazole-5-carboxamide] came in with a logP of 2.71.

The values are drawn from patent US20200087271A1, “N-CYCLOBUTYL-THIAZOL-5-CARBOXAMIDES WITH NEMATICIDAL ACTIVITY” (SYNGENTA PARTICIPATIONS AG, priority 2016, published 2020).
